Laboratory results: US7235536B2, “Cellulose sulfate and other sulfated polysaccharides to prevent and treat papilloma virus infection and other infections” (Rush Presbyterian-St. Luke's Medical Center, priority 2000, dated 2007)
Where two headings read alike, the source gives them in different places. Marks after values point to notes of the source that are not given here.

What was measured:
BPV-1 = BPV-1 focus-forming assay, cells pre-incubated with compound and washed before virus (Table D); type: cell-based, bovine papilloma virus; conditions: for Average ± standard deviation (foci/well): C127-D10 cells, washed before virus
Procedure: Microbicidal activity of compounds was also tested by pre-incubation of cells with compounds followed by addition of virus to compound-coated C127 cells. In these experiments, dilutions of compounds were added to cultures of C127 cells, incubated for 1 hr at 37° C., washed 3 times with media to remove unbound compound, prior to addition of approximately 100 focus-forming units of BPV-1. The cultures were incubated for an additional hour, washed three times to remove unbound virus, then the incubation was continued for two weeks with media changes every 3-4 days and foci counted as described above.
Pre-incubation of C127-D10 cells with compounds prior to addition of BPV-1 was tested to determine whether the microbicidal effects of CS and DS extended to a blockage of virus interaction with cell surfaces. In these experiments, titrations of compounds were added to cell cultures followed by washing away unbound reagent prior to addition of virus. After a one-hour incubation with virus, unbound virus was removed by washing and the cultures monitored for foci after two weeks.

trichomonas vaginalis = assay: Inhibition of Trichomonas growth, live count; type: cell-based; conditions: for number of live trichomonas: 5 mg/ml
Procedure: The inhibitory effect of CS on trichomonas vaginalis, protozoa known to cause vaginitis, is shown below. The organisms were grown in modified Diamond's medium. CS was mixed with the organism in modified Diamond's medium at a final concentration of about 5 mg/ml (5.12 mg/ml) and incubated anaerobically at 35° C. Samples were collected at various time points and the number of live trichomonas counted with a hemacytomer. The same procedure was performed in the absence of CS. The volume of the inoculum was varied as indicated in the Tables to study the effect of increasing amounts of the organism on the results.

Candida albicans = assay: Microbial challenge of CS gel; type: cell-based
Procedure: (§1) 6% CS was prepared in water as a translucent gel. Twenty grams of the gel was placed in a plastic screw-cap centrifuge tube. The microbial inoculants were prepared, gently vortexed and 0.1 ml inoculant was aseptically pipetted into the 20.0 gram gel. This procedure was repeated for each microbial organism. The samples were incubated at room temperature (20-25° C.) for 14 days or 28 days. The microbes tested and their theoretical yields can be found in Table F. After 14 or 28 days incubation, dilutions (10^−1, 10^−2, 10^−3) of the gels were made in saline and 1 ml plated onto Sabouraud dextrose (Aspergillus and Candida) or onto tryptic soy (other microbes). The number of organisms that grew after 3-7 days at room temperature were counted.
(§2) In another study, CS was dissolved in water at the concentrations indicated below. No other ingredients, including preservatives, were added. The gels were challenged with microbes as described above except that the gels were examined for the presence of microbes after 1, 2, 3, 4 and 7 days. The amount of microbes origially inoculated in the gels is also shown below.

Staphylococcus aureus = assay: Microbial challenge of CS gel; type: cell-based
Procedure: as §1, §2

Fusobacterium nucleatum [1] = assay: Broth method MIC; type: cell-based; conditions: for CS MIC: Broth (study 2)
[2] = test system: Peptostreptococcus magnus; assay: Broth method MIC; type: cell-based; conditions: for CS MIC: Broth (study 2)
[3] = test system: Peptostreptococcus asaccharolyticus; assay: Broth method MIC; type: cell-based; conditions: for CS MIC: Broth (study 2)
[4] = test system: Bacteroides thetaiotaomicron; assay: Agar method MIC; type: cell-based
Fusobacterium nucleatum [5] = test system: Fusobacterium nucleatum
Bacteroides fragilis = conditions: Agar

sodium cellulose sulfate
Average ± standard deviation (foci/well) (BPV-1; 10 μg/ml): 103 ± 6.3 foci/well
Average ± standard deviation (foci/well) (BPV-1; 100 μg/ml): 120 ± 8.4 foci/well
Average ± standard deviation (foci/well) (BPV-1; 1,000 μg/ml): 87 ± 45.1 foci/well
Average ± standard deviation (foci/well) (BPV-1; 10,000 μg/ml): 2 ± 1.3 foci/well
microbicidal effects (BPV-1; C127-D10 cells pre-treated, except at 10 mg/ml): only weak microbicidal effects
growth of the trichomonas culture (trichomonas vaginalis; 5 mg/ml CS): Complete inhibition of growth
number of live trichomonas (trichomonas vaginalis; 16 hr, 50 μl Trich): 0 organisms per ml
number of live trichomonas (trichomonas vaginalis; 16 hr, 100 μl Trich): 0 organisms per ml
number of live trichomonas (trichomonas vaginalis; 16 hr, 200 μl Trich): 0 organisms per ml
number of live trichomonas (trichomonas vaginalis; 16 hr, 400 μl Trich): 0 organisms per ml
number of live trichomonas (trichomonas vaginalis; 24 hr, 50 μl Trich): 0 organisms per ml
number of live trichomonas (trichomonas vaginalis; 24 hr, 100 μl Trich): 0 organisms per ml
number of live trichomonas (trichomonas vaginalis; 24 hr, 200 μl Trich): 0 organisms per ml
number of live trichomonas (trichomonas vaginalis; 24 hr, 400 μl Trich): 0 organisms per ml
number of live trichomonas (trichomonas vaginalis; 40 hr, 50 μl Trich): 0 organisms per ml
number of live trichomonas (trichomonas vaginalis; 40 hr, 100 μl Trich): 0 organisms per ml
number of live trichomonas (trichomonas vaginalis; 40 hr, 200 μl Trich): 0 organisms per ml
number of live trichomonas (trichomonas vaginalis; 40 hr, 400 μl Trich): 0 organisms per ml
number of live trichomonas (trichomonas vaginalis; 48 hr, 50 μl Trich): 0 organisms per ml
number of live trichomonas (trichomonas vaginalis; 48 hr, 100 μl Trich): 0 organisms per ml
number of live trichomonas (trichomonas vaginalis; 48 hr, 200 μl Trich): 0 organisms per ml
number of live trichomonas (trichomonas vaginalis; 48 hr, 400 μl Trich): 0 organisms per ml
Day 14 CFU/g (Candida albicans; 6% CS gel, ATCC 10231, room temperature, Day 14): 0 CFU/g
Day 28 CFU/g (Candida albicans; 6% CS gel, ATCC 10231, room temperature, Day 28): 0 CFU/g
Candida albicans CFU (Candida albicans; CS 0.06% in water, 24 hours): 0 CFU × 10^5/ml
Candida albicans CFU (Candida albicans; CS 0.06% in water, 48 hours): 0 CFU × 10^5/ml
Candida albicans CFU (Candida albicans; CS 0.06% in water, 72 hours): 0 CFU × 10^5/ml
Candida albicans CFU (Candida albicans; CS 0.06% in water, 96 hours): 0 CFU × 10^5/ml
Candida albicans CFU (Candida albicans; CS 0.06% in water, 7 days): 0 CFU × 10^5/ml
Candida albicans CFU (Candida albicans; CS 0.6% in water, 24 hours): 0 CFU × 10^5/ml
Candida albicans CFU (Candida albicans; CS 0.6% in water, 48 hours): 0 CFU × 10^5/ml
Candida albicans CFU (Candida albicans; CS 0.6% in water, 72 hours): 0.62 CFU × 10^5/ml
Candida albicans CFU (Candida albicans; CS 0.6% in water, 96 hours): 0.655 CFU × 10^5/ml
Candida albicans CFU (Candida albicans; CS 0.6% in water, 7 days): 0.535 CFU × 10^5/ml
Candida albicans CFU (Candida albicans; CS 1.2% in water, 24 hours): 0 CFU × 10^5/ml
Candida albicans CFU (Candida albicans; CS 1.2% in water, 48 hours): 0 CFU × 10^5/ml
Candida albicans CFU (Candida albicans; CS 1.2% in water, 72 hours): 0 CFU × 10^5/ml
Candida albicans CFU (Candida albicans; CS 1.2% in water, 96 hours): 0 CFU × 10^5/ml
Candida albicans CFU (Candida albicans; CS 1.2% in water, 7 days): 0 CFU × 10^5/ml
Candida albicans CFU (Candida albicans; CS 6% in water, 24 hours): 0 CFU × 10^5/ml
Candida albicans CFU (Candida albicans; CS 6% in water, 48 hours): 0 CFU × 10^5/ml
Candida albicans CFU (Candida albicans; CS 6% in water, 72 hours): 0 CFU × 10^5/ml
Candida albicans CFU (Candida albicans; CS 6% in water, 96 hours): 0 CFU × 10^5/ml
Candida albicans CFU (Candida albicans; CS 6% in water, 7 days): 0 CFU × 10^5/ml
inactivation of Candida (Candida albicans; CS gel 1.2 and 6%): Complete inactivation
inactivation of Candida (Candida albicans; CS gel in as low a concentration as 0.6%): inactivated
inactivation of Staphylococcus (Staphylococcus aureus; 0.06% CS gel, slow growth thereafter): initially inactivated most Staphylococcus
inactivation of Staphyloccus (Staphylococcus aureus; 6% CS gel): completely inactivated
Day 14 CFU/g (Staphylococcus aureus; 6% CS gel, ATCC 6538, room temperature, Day 14): 0 CFU/g
Day 28 CFU/g (Staphylococcus aureus; 6% CS gel, ATCC 6538, room temperature, Day 28): 0 CFU/g
Staphylococcus aureus CFU (Staphylococcus aureus; CS 0.06% in water, 24 hours): 0.625 CFU × 10^5/ml
Staphylococcus aureus CFU (Staphylococcus aureus; CS 0.06% in water, 48 hours): 0.715 CFU × 10^5/ml
Staphylococcus aureus CFU (Staphylococcus aureus; CS 0.06% in water, 72 hours): 1.04 CFU × 10^5/ml
Staphylococcus aureus CFU (Staphylococcus aureus; CS 0.06% in water, 96 hours): 2.06 CFU × 10^5/ml
Staphylococcus aureus CFU (Staphylococcus aureus; CS 0.06% in water, 7 days): 5.815 CFU × 10^5/ml
Staphylococcus aureus CFU (Staphylococcus aureus; CS 0.6% in water, 24 hours): 5.17 CFU × 10^5/ml
Staphylococcus aureus CFU (Staphylococcus aureus; CS 0.6% in water, 48 hours): 5.53 CFU × 10^5/ml
Staphylococcus aureus CFU (Staphylococcus aureus; CS 0.6% in water, 72 hours): 4.82 CFU × 10^5/ml
Staphylococcus aureus CFU (Staphylococcus aureus; CS 0.6% in water, 96 hours): 6.41 CFU × 10^5/ml
Staphylococcus aureus CFU (Staphylococcus aureus; CS 0.6% in water, 7 days): 3.25 CFU × 10^5/ml
Staphylococcus aureus CFU (Staphylococcus aureus; CS 1.2% in water, 24 hours): 2.71 CFU × 10^5/ml
Staphylococcus aureus CFU (Staphylococcus aureus; CS 1.2% in water, 48 hours): 4.725 CFU × 10^5/ml
Staphylococcus aureus CFU (Staphylococcus aureus; CS 1.2% in water, 72 hours): 2.39 CFU × 10^5/ml
Staphylococcus aureus CFU (Staphylococcus aureus; CS 1.2% in water, 96 hours): 3.96 CFU × 10^5/ml
Staphylococcus aureus CFU (Staphylococcus aureus; CS 1.2% in water, 7 days): 3.55 CFU × 10^5/ml
Staphylococcus aureus CFU (Staphylococcus aureus; CS 6% in water, 24 hours): 0 CFU × 10^5/ml
Staphylococcus aureus CFU (Staphylococcus aureus; CS 6% in water, 48 hours): 0.005 CFU × 10^5/ml
Staphylococcus aureus CFU (Staphylococcus aureus; CS 6% in water, 72 hours): 0 CFU × 10^5/ml
Staphylococcus aureus CFU (Staphylococcus aureus; CS 6% in water, 96 hours): 0 CFU × 10^5/ml
Staphylococcus aureus CFU (Staphylococcus aureus; CS 6% in water, 7 days): 0 CFU × 10^5/ml
inactivation of Staphyloccus (Staphylococcus aureus; lower CS concentrations): not inactivated but growth was prevented
growth inhibition (Fusobacterium nucleatum [1]; both strains, broth method): inhibited
CS MIC (Fusobacterium nucleatum [1]; rma# 10481): 5000 µg/mL
CS MIC (Fusobacterium nucleatum [1]; rma# 11518): 10000 µg/mL
growth inhibition ([2]; all strains): inhibited
CS MIC ([2]; rma# 11598): 5000 µg/mL
CS MIC ([2]; rma# 11658): 5000 µg/mL
growth inhibition ([3]; all strains): inhibited
CS MIC ([3]; rma# 11587): 10000 µg/mL
CS MIC ([3]; rma# 11607): 10000 µg/mL
CS MIC ([4]; ATCC (first listed)): >625 µg/mL
CS MIC ([4]; rma# 11604): >625 µg/mL
CS MIC ([4]; rma# 11651): >625 µg/mL
CS MIC (Fusobacterium nucleatum [5]): >0.625** mg/ml
CS MIC (Bacteroides fragilis; ATCC (first listed)): >625 µg/mL
CS MIC (Bacteroides fragilis; rma# 11647): >625 µg/mL
CS MIC (Bacteroides fragilis; rma# 11652): >625 µg/mL
